Results taken from ChEMBL document CHEMBL4400559, “Exploiting the furo[2,3-b]pyridine core against multidrug-resistant Mycobacterium tuberculosis” (Bioorg Med Chem Lett, 2019).
In brackets after ≈: the same amount, converted by molar mass.

What was measured:
Type in all cases: functional
[1] = test system: Mycobacterium tuberculosis; experiment: Antibacterial activity against drug-resistant Mycobacterium tuberculosis isolate 1 after 7 days by resazurin microtiter assay; conditions: isolate 1, 168 h
[2] = test system: Mycobacterium tuberculosis; experiment: Antibacterial activity against drug-resistant Mycobacterium tuberculosis isolate 2 after 7 days by resazurin microtiter assay; conditions: isolate 2, 168 h
[3] = test system: Mycobacterium tuberculosis; experiment: Antibacterial activity against drug-resistant Mycobacterium tuberculosis isolate 3 after 7 days by resazurin microtiter assay; conditions: isolate 3, 168 h
[4] = test system: Mycobacterium tuberculosis; experiment: Antibacterial activity against drug-resistant Mycobacterium tuberculosis isolate 4 after 7 days by resazurin microtiter assay; conditions: isolate 4, 168 h
[5] = test system: Mycobacterium tuberculosis; experiment: Antibacterial activity against drug-resistant Mycobacterium tuberculosis isolate 5 after 7 days by resazurin microtiter assay; conditions: isolate 5, 168 h

Row | Structure (SMILES) | MIC [1] | MIC [2] | MIC [3] | MIC [4] | MIC [5]
1 | CCOC(=O)c1c(C)oc2nc(N3CCCC3)ccc12 | 18.1 µM (≈ 4.97 µg/mL) | 20.2 µM (≈ 5.54 µg/mL) | 9.3 µM (≈ 2.55 µg/mL) | 15.8 µM (≈ 4.33 µg/mL) | 16.6 µM (≈ 4.55 µg/mL)
2 | CCCCNc1ccc2c(C(=O)OCC)c(C(C)C)oc2n1 | > 82.2 µM | > 82.2 µM | > 82.2 µM | > 82.2 µM | > 82.2 µM
3 | NCC[C@H](O)C(=O)N[C@@H]1C[C@H](N)[C@@H](O[C@H]2O[C@H](CN)[C@@H](O)[C@H](O)[C@H]2O)[C@H](O)[C@H]1O[C@H]1O[C@H](CO)[C@@H](O)[C@H](N)[C@H]1O [AMIKACIN] | 0.4 µM (≈ 0.234 µg/mL) | 1.6 µM (≈ 0.937 µg/mL) | 0.4 µM (≈ 0.234 µg/mL) | 0.7 µM (≈ 0.41 µg/mL) | 1.7 µM (≈ 0.996 µg/mL)
4 | N[C@@H]1CONC1=O [CYCLOSERINE] | 242 µM (≈ 24.7 µg/mL) | 121 µM (≈ 12.3 µg/mL) | > 245 µM | 167 µM (≈ 17 µg/mL) | 196 µM (≈ 20.1 µg/mL)
5 | CC[C@@H](CO)NCCN[C@@H](CC)CO [ETHAMBUTOL] | > 122 µM | > 122 µM | > 122 µM | > 122 µM | > 122 µM
6 | NNC(=O)c1ccncc1 [ISONIAZID] | > 182 µM | > 182 µM | > 182 µM | > 182 µM | > 182 µM
7 | COc1c(N2C[C@@H]3CCCN[C@@H]3C2)c(F)cc2c(=O)c(C(=O)O)cn(C3CC3)c12 [MOXIFLOXACIN] | 0.3 µM (≈ 0.12 µg/mL) | 0.7 µM (≈ 0.281 µg/mL) | 0.5 µM (≈ 0.201 µg/mL) | 1.4 µM (≈ 0.562 µg/mL) | 0.4 µM (≈ 0.161 µg/mL)
8 | CO[C@H]1/C=C/O[C@@]2(C)Oc3c(C)c(O)c4c(O)c(c(/C=N/N5CCN(C)CC5)c(O)c4c3C2=O)NC(=O)/C(C)=C\C=C\[C@H](C)[C@H](O)[C@@H](C)[C@@H](O)[C@@H](C)[C@H](OC(C)=O)[C@@H]1C [RIFAMPIN] |  | > 30.4 µM | > 30.4 µM | > 30.4 µM | > 30.4 µM
